The values that follow come from patent US11878973B2, “Bicyclic compounds and their uses” (NOVARTIS AG, priority 2021, dated 2024).

Where only a bound is given, the exact number is not on record here.

The test system of one assay is SW48 cells. Briefly: Proliferation assay SW48 (CellTiterGlo, 96 hours). Conditions: Homo sapiens, SW48, read-out: Proliferation Assay SW48 (GI50). Background: In ATP-based viability assays light output follows the ATP content of the culture.
The test system of the next assay is DLD1-WRN-KO cells. Briefly: Proliferation assay DLD1-WRN-KO (CellTiterGlo, 96 hours; off-target effects). Conditions: Homo sapiens, read-out: Proliferation Assay DLD1-WRN-KO (GI50).
The target of the next assay is WRN helicase (Homo sapiens (Human), UniProt Q14191). Briefly: In vitro enzymatic activity assay on WRN helicase (DNA dependent ATPase assay, ADP-Glo). Format: biochemical. Conditions: geometric means of at least 2 determinations; read-out: WRN ATPase Activity (IC50). The procedure, abridged: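 The WRN helicase core (aa N517-P1238), 10 nM, hydrolysed 300 µM ATP in the presence of 0.2 nM FLAP26 DNA (Tris pH 7.5, 2 mM MgCl2, 50 mM NaCl) for 30 min at room temperature. ADP formed was quantified by ADP-Glo luminescence.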
A general note: ADP-Glo first removes unused ATP, then detects ADP through luciferase.

Chain of WRN helicase (Q14191 517-1238): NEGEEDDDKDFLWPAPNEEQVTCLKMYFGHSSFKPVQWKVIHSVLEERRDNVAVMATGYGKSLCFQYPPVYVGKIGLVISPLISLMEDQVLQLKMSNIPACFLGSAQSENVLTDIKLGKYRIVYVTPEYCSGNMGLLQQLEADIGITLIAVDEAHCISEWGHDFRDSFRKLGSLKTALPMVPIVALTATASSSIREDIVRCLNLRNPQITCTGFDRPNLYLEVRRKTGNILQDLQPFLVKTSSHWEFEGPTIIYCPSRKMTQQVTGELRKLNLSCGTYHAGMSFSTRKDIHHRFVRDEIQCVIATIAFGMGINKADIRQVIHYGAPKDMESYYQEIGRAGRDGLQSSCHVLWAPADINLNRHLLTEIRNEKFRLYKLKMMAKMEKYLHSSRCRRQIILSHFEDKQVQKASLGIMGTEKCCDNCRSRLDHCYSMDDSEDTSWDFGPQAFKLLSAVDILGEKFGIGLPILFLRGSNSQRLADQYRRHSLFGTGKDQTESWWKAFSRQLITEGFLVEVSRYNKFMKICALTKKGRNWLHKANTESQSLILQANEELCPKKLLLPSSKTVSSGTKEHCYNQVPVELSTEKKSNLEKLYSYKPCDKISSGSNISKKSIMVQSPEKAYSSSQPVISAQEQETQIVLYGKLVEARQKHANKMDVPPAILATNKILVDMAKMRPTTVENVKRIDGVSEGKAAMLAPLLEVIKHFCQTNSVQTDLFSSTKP
Procedure for DLD1-WRN-KO cells: The WRN-knockdown insensitive colon carcinoma cell line DLD-1 (RRID: CVCL_0248) was obtained from the Korean Cell Line Bank (KCLB), and used to generate a derivative in which the endogenous WRN gene copies were knocked out by CRISPR-mediated editing using standard CRISPR methods. The resulting cell line, DLD1-WRN—KO, was used to assess potential off-target compound effects.
All cells were maintained at 37° C. in a humidified 5% CO2 incubator.
For data analysis, the assay background signal that was determined in wells containing medium, but no cells, was subtracted from all other data points prior to further calculations. The extent of growth inhibition and potential cell kill was assessed by comparing the ATP levels (measured using CellTiterGlo, Promega) in compound-treated cells with those present at the time of compound addition. […] 100%, 0% and −100% signify absence of growth inhibition, growth stasis, and complete cell kill, respectively. Compound concentrations leading to half-maximal growth inhibition (G150) and residual cell viability at the highest tested compound concentration (Data (cmax), expressed in percent) were routinely calculated. Data analysis can also be carried out using commercially available software designed to derive IC50 values using 4-parameter fits (e.g. GraphPad Prism, XL fit). The reported GI50 values are the geometrical means of at least 2 independent replicates.

On to `CCc1c(N2CCN(C(=O)c3ncnc(C)c3O)CC2)c(=O)n2nc(C3=CCOCC3)nc2n1CC(=O)Nc1ccc(C(F)(F)F)cc1` [Example 73, 2-(2-(3,6-dihydro-2H-pyran-4-yl)-5-ethyl-6-(4-(5-hydroxy-6-methylpyrimidine-4-carbonyl)piperazin-1-yl)-7-oxo-[1,2,4]triazolo[1,5-a]pyrimidin-4(7H)-yl)-N-(4-(trifluoromethyl)phenyl)acetamide], for which the GI50 in the assay on SW48 cells was 200 nM; with DLD1-WRN-KO cells, more than 10000 nM. Further, the IC50 at WRN helicase stood at 70 nM.

Consider `CCc1c(N2CCN(C(=O)c3nc(C)ccc3O)CC2)c(=O)n2nc(C3=CCOCC3)nc2n1CC(=O)Nc1ccc(C(F)(F)F)cc1` [Example 74, 2-(2-(3,6-dihydro-2H-pyran-4-yl)-5-ethyl-6-(4-(3-hydroxy-6-methylpicolinoyl)piperazin-1-yl)-7-oxo-[1,2,4]triazolo[1,5-a]pyrimidin-4(7H)-yl)-N-(4-(trifluoromethyl)phenyl)acetamide], for which the GI50 is 70 nM in the assay with SW48 cells and more than 10000 nM in the assay on DLD1-WRN-KO cells. Further, the IC50 at WRN helicase was 50 nM.

In the case of `CCc1c(N2CCN(C(=O)c3nccc(C)c3O)CC2)c(=O)n2nc(C3=CCOCC3)nc2n1CC(=O)Nc1ccc(C(F)(F)F)cc1` [Example 75, 2-(2-(3,6-dihydro-2H-pyran-4-yl)-5-ethyl-6-(4-(3-hydroxy-4-methylpicolinoyl)piperazin-1-yl)-7-oxo-[1,2,4]triazolo[1,5-a]pyrimidin-4(7H)-yl)-N-(4-(trifluoromethyl)phenyl)acetamide], the GI50 was 80 nM with SW48 cells and more than 10000 nM in the assay with DLD1-WRN-KO cells. Besides, the IC50 at WRN helicase was determined as 50 nM.

On to `CCc1c(N2CCN(C(=O)c3ncccc3O)CC2)c(=O)n2nc(-c3cccnc3)nc2n1CC(=O)Nc1ccc(C(F)(F)F)cc1C` [Example 76, 2-(5-ethyl-6-(4-(3-hydroxypicolinoyl)piperazin-1-yl)-7-oxo-2-(pyridin-3-yl)-[1,2,4]triazolo[1,5-a]pyrimidin-4(7H)-yl)-N-(2-methyl-4-(trifluoromethyl)phenyl)acetamide], for which the GI50 in the assay on SW48 cells was 190 nM; in the assay on DLD1-WRN-KO cells, more than 10000 nM. Further, on WRN helicase, the IC50 amounted to 80 nM.

With `CCc1c(N2CCN(C(=O)c3ncccc3O)CC2)c(=O)n2nc(-c3ccc(C)nc3)nc2n1CC(=O)Nc1ccc(C(F)(F)F)cc1C` [Example 77, 2-(5-ethyl-6-(4-(3-hydroxypicolinoyl)piperazin-1-yl)-2-(6-methylpyridin-3-yl)-7-oxo-[1,2,4]triazolo[1,5-a]pyrimidin-4(7H)-yl)-N-(2-methyl-4-(trifluoromethyl)phenyl)acetamide], the GI50 in the assay on SW48 cells is 380 nM; in the assay with DLD1-WRN-KO cells, more than 10000 nM. Besides, at WRN helicase, the IC50 amounted to 210 nM.

As to `CCc1c(N2CCN(C(=O)c3nccc(Cl)c3O)CC2)c(=O)n2nc(C3=COCCO3)nc2n1CC(=O)Nc1ccc(C(F)(F)F)cc1C` [Example 78, 2-(6-(4-(4-chloro-3-hydroxypicolinoyl)piperazin-1-yl)-2-(5,6-dihydro-1,4-dioxin-2-yl)-5-ethyl-7-oxo-[1,2,4]triazolo[1,5-a]pyrimidin-4(7H)-yl)-N-(2-methyl-4-(trifluoromethyl)phenyl)acetamide], the values for the GI50 in the assay with SW48 cells and in the assay on DLD1-WRN-KO cells were 300 nM and more than 10000 nM, respectively. The IC50 at WRN helicase turned out to be 80 nM.

On to `CCc1c(N2CCN(C(=O)c3nccc(Cl)c3O)CC2)c(=O)n2nc(C3=COCCO3)nc2n1CC(=O)Nc1ccc(C(F)(F)F)c(F)c1C` [Example 79, 2-(6-(4-(4-chloro-3-hydroxypicolinoyl)piperazin-1-yl)-2-(5,6-dihydro-1,4-dioxin-2-yl)-5-ethyl-7-oxo-[1,2,4]triazolo[1,5-a]pyrimidin-4(7H)-yl)-N-(3-fluoro-2-methyl-4-(trifluoromethyl)phenyl)acetamide], for which the figures for the GI50 in the assay with SW48 cells and with DLD1-WRN-KO cells were 500 nM and more than 10000 nM, respectively. At WRN helicase, the IC50 was 40 nM.

With `CCc1c(N2CCN(C(=O)c3ncccc3O)CC2)c(=O)n2nc(N3CCN(CC(=O)O)CC3)nc2n1CC(=O)Nc1ccc(C(F)(F)F)cc1Cl` [Example 82, 2-(4-(4-(2-((2-chloro-4-(trifluoromethyl)phenyl)amino)-2-oxoethyl)-5-ethyl-6-(4-(3-hydroxypicolinoyl)piperazin-1-yl)-7-oxo-4,7-dihydro-[1,2,4]triazolo[1,5-a]pyrimidin-2-yl)piperazin-1-yl)acetic acid], the GI50 in the assay on SW48 cells was 7720 nM; in the assay with DLD1-WRN-KO cells it was more than 10000 nM. The IC50 at WRN helicase is 280 nM.

`CCc1c(N2CCN(C(=O)c3ncccc3O)CC2)c(=O)n2nc(C3=CCCCO3)nc2n1CC(=O)Nc1ccc(C(F)(F)F)cc1C` [Example 83, 2-(2-(3,4-dihydro-2H-pyran-6-yl)-5-ethyl-6-(4-(3-hydroxypicolinoyl)piperazin-1-yl)-7-oxo-[1,2,4]triazolo[1,5-a]pyrimidin-4(7H)-yl)-N-(2-methyl-4-(trifluoromethyl)phenyl)acetamide]: the figures for the GI50 with SW48 cells and in the assay with DLD1-WRN-KO cells were 60 nM and more than 10000 nM, respectively. The IC50 on WRN helicase amounted to 90 nM.

As for `CCc1c(N2CCN(C(=O)c3ncccc3O)CC2)c(=O)n2nc(C3=CCCCO3)nc2n1CC(=O)Nc1ccc(C(F)(F)F)cc1` [Example 84, 2-(2-(3,4-dihydro-2H-pyran-6-yl)-5-ethyl-6-(4-(3-hydroxypicolinoyl)piperazin-1-yl)-7-oxo-[1,2,4]triazolo[1,5-a]pyrimidin-4(7H)-yl)-N-(4-(trifluoromethyl)phenyl)acetamide], the GI50 in the assay with SW48 cells was 130 nM; in the assay on DLD1-WRN-KO cells, more than 10000 nM. Also, the IC50 at WRN helicase is 50 nM.

With `CCc1c(N2CCN(C(=O)c3nccc(Cl)c3O)CC2)c(=O)n2nc(N3CCC[C@H](F)C3)nc2n1CC(=O)Nc1ccc(C(F)(F)F)cc1C` [Example 85, (S)-2-(6-(4-(4-chloro-3-hydroxypicolinoyl)piperazin-1-yl)-5-ethyl-2-(3-fluoropiperidin-1-yl)-7-oxo-[1,2,4]triazolo[1,5-a]pyrimidin-4(7H)-yl)-N-(2-methyl-4-(trifluoromethyl)phenyl)acetamide], the GI50 is 110 nM in the assay on SW48 cells and more than 10000 nM in the assay on DLD1-WRN-KO cells. In addition, the IC50 on WRN helicase came to 70 nM.

For the compound `CCc1c(N2CCN(C(=O)c3ncnc(C)c3O)[C@H](C)C2)c(=O)n2nc(C3=CCOCC3)nc2n1CC(=O)Nc1ccc(C(F)(F)F)cc1Cl` [Example 86, (R)—N-(2-chloro-4-(trifluoromethyl)phenyl)-2-(2-(3,6-dihydro-2H-pyran-4-yl)-5-ethyl-6-(4-(5-hydroxy-6-methylpyrimidine-4-carbonyl)-3-methylpiperazin-1-yl)-7-oxo-[1,2,4]triazolo[1,5-a]pyrimidin-4(7H)-yl)acetamide], the GI50 in the assay with SW48 cells is 80 nM; in the assay with DLD1-WRN-KO cells, more than 10000 nM. The IC50 on WRN helicase worked out at 90 nM.

As for `CCc1c(N2CCN(C(=O)c3ncnc(C)c3O)C[C@@H]2C)c(=O)n2nc(C3=CCOCC3)nc2n1CC(=O)Nc1ccc(C(F)(F)F)cc1Cl` [Example 87, (S)—N-(2-chloro-4-(trifluoromethyl)phenyl)-2-(2-(3,6-dihydro-2H-pyran-4-yl)-5-ethyl-6-(4-(5-hydroxy-6-methylpyrimidine-4-carbonyl)-2-methylpiperazin-1-yl)-7-oxo-[1,2,4]triazolo[1,5-a]pyrimidin-4(7H)-yl)acetamide], the results for the GI50 in the assay on SW48 cells and in the assay on DLD1-WRN-KO cells were 60 nM and more than 10000 nM, respectively. Further, the IC50 at WRN helicase was 110 nM.

Take `CCc1c(N2CCN(C(=O)c3ncnc(C)c3O)C[C@H]2C)c(=O)n2nc(C3=CCOCC3)nc2n1CC(=O)Nc1ccc(C(F)(F)F)cc1Cl` [Example 88, (R)—N-(2-chloro-4-(trifluoromethyl)phenyl)-2-(2-(3,6-dihydro-2H-pyran-4-yl)-5-ethyl-6-(4-(5-hydroxy-6-methylpyrimidine-4-carbonyl)-2-methylpiperazin-1-yl)-7-oxo-[1,2,4]triazolo[1,5-a]pyrimidin-4(7H)-yl)acetamide]: the GI50 is 760 nM with SW48 cells and more than 10000 nM in the assay on DLD1-WRN-KO cells. Also, the IC50 at WRN helicase worked out at 370 nM.

With `Cc1c(N2CCN(C(=O)c3ncccc3O)[C@H](C)C2)c(=O)n2nc(C3=CCOCC3)nc2n1CC(=O)Nc1ccc(C(F)(F)F)cc1` [Example 89, (R)-2-(2-(3,6-dihydro-2H-pyran-4-yl)-6-(4-(3-hydroxypicolinoyl)-3-methylpiperazin-1-yl)-5-methyl-7-oxo-[1,2,4]triazolo[1,5-a]pyrimidin-4(7H)-yl)-N-(4-(trifluoromethyl)phenyl)acetamide], the GI50 with SW48 cells was 170 nM; in the assay on DLD1-WRN-KO cells, more than 10000 nM. In addition, the half-maximal inhibitory concentration (IC50) at WRN helicase was determined as 40 nM.

With `Cc1ccnc(C(=O)N2CCN(c3c(C)n(CC(=O)Nc4ccc(C(F)(F)F)cc4)c4nc(C5=CCOCC5)nn4c3=O)CC2)c1O` [Example 90, 2-(2-(3,6-dihydro-2H-pyran-4-yl)-6-(4-(3-hydroxy-4-methylpicolinoyl)piperazin-1-yl)-5-methyl-7-oxo-[1,2,4]triazolo[1,5-a]pyrimidin-4(7H)-yl)-N-(4-(trifluoromethyl)phenyl)acetamide], the GI50 is 300 nM in the assay on SW48 cells and more than 10000 nM with DLD1-WRN-KO cells. Besides, the IC50 on WRN helicase amounted to 130 nM.

For the compound `Cc1ccc(O)c(C(=O)N2CCN(c3c(C)n(CC(=O)Nc4ccc(C(F)(F)F)cc4)c4nc(C5=CCOCC5)nn4c3=O)CC2)n1` [Example 91, 2-(2-(3,6-dihydro-2H-pyran-4-yl)-6-(4-(3-hydroxy-6-methylpicolinoyl)piperazin-1-yl)-5-methyl-7-oxo-[1,2,4]triazolo[1,5-a]pyrimidin-4(7H)-yl)-N-(4-(trifluoromethyl)phenyl)acetamide], the GI50 in the assay with SW48 cells is 320 nM; in the assay with DLD1-WRN-KO cells it was more than 10000 nM. For the same compound, the IC50 on WRN helicase amounted to 80 nM.

As a reminder, the IC50 is the concentration at which inhibition is half-maximal.
